Measurements from US20090111825A1, “THIOPHENE 1,2,4-TRIAZOLE DERIVATIVES AS MODULATORS OF MGLUR5” (priority 2007, published 2009).

Legend:
[1] = molecular target: T1, human mGluR5d (Homo sapiens, UniProt P41594); experiment: FLIPR assay, mobilization of intracellular calcium in cells expressing human mGluR5d; assay type: cell-based; details: antagonism of agonist response, read-out: FLIPR hmGluR5d
T1 construct: expressed in transfected cells
Excerpt: The properties of the compounds of the invention can be analyzed using standard assays for pharmacological activity. Examples of glutamate receptor assays are well known in the art as described in for example Aramori et al., Neuron 8:757 (1992), Tanabe et al., Neuron 8:169 (1992), Miller et al., J. Neuroscience 15: 6103 (1995), Balazs, et al., J. Neurochemistry 69:151 (1997). The methodology described in these publications is incorporated herein by reference. Conveniently, the compounds of the invention can be studied by means of an assay (FLIPR) that measures the mobilization of intracellular calcium, [Ca^2+]i in cells expressing mGluR5 or another assay (IP3) that measures inositol phosphate turnover.
Cells expressing human mGluR5d as described in WO97/05252 cultured in a mixture of high glucose DMEM with Glutamax (31966-021)(500 mL), 10% dialyzed fetal bovine serum (Hyclone #SH30079.03)(56 mL), 200 μg/mL Hygromycin B (Invitrogen 45-0430, 50 mg/mL)(2.2 mL), 200 μg/mL Zeocin (Invitrogen #R250-01; 100 mg/mL)(1.1 mL) are seeded at a density of 100,000 cells per well on collagen coated clear bottom 96-well plates with black sides and cells were allowed to adhere over night before experiments. All assays are done in a buffer containing 146 mM NaCl, 5 mM KCl, 1 mM MgCl2, 1 mM CaCl2, 20 mM HEPES, 1 mg/mL glucose and 1 mg/mL BSA Fraction IV (pH 7.4). Cell cultures in the 96-well plates are loaded for 60 minutes in the above mentioned buffer containing 6 μM of the acetoxymethyl ester form of the fluorescent calcium indicator fluo-3 (Molecular Probes, Eugene, Oreg.) in 0.025% pluronic acid (a proprietary, non-ionic surfactant polyol—CAS Number 9003-11-6). Following the loading period the fluo-3 buffer is removed and replaced with fresh assay buffer. FLIPR experiments are done using a laser setting of 0.700 W and a 0.4 second CCD camera shutter speed with excitation and emission wavelengths of 488 nm and 562 nm, respectively. Each experiment is initiated with 160 μl of buffer present in each well of the cell plate. A 40 μl addition from the antagonist plate was followed by a 50 μL addition from the agonist plate. A 30 minutes, in dark at 25° C., interval separates the antagonist and agonist additions. The fluorescence signal is sampled 50 times at 1-second intervals followed by 3 samples at 5-second intervals immediately after each of the two additions. Responses are measured as the difference between the peak heights of the response to agonist) less the background fluorescence within the sample period. IC50 determinations are made using a linear least squares fitting program.

[2] = Determination of brain to plasma ratio in rat; assay type: in vivo; details: brain and plasma, female Sprague Dawley rats, drug in brain over drug in plasma, read-out: Brain/Plasma Ratio of compound in Rat
Procedure: Brain to plasma ratios are estimated in female Sprague Dawley rats. The compound is dissolved in water or another appropriate vehicle. For determination of brain to plasma ratio the compound is administrated as a subcutaneous, or an intravenous bolus injection, or an intravenous infusion, or an oral administration. At a predetermined time point after the administration a blood sample is taken with cardiac puncture. The rat is terminated by cutting the heart open, and the brain is immediately retained. The blood samples are collected in heparinized tubes and centrifuged within 30 minutes, in order to separate the plasma from the blood cells. The plasma is transferred to 96-well plates and stored at −20° C. until analysis. The brains are divided in half, and each half is placed in a pre-tarred tube and stored at −20° C. until analysis. Prior to the analysis, the brain samples are thawed and 3 mL/g brain tissue of distilled water is added to the tubes. The brain samples are sonicated in an ice bath until the samples are homogenized. Both brain and plasma samples are precipitated with acetonitrile. After centrifugation, the supernatant is diluted with 0.2% formic acid. Analysis is performed on a short reversed-phase HPLC column with rapid gradient elution and MSMS detection using a triple quadrupole instrument with electrospray ionization and Selected Reaction Monitoring (SRM) acquisition. Liquid-liquid extraction may be used as an alternative sample clean-up. The samples are extracted, by shaking, to an organic solvent after addition of a suitable buffer. An aliquot of the organic layer is transferred to a new vial and evaporated to dryness under a stream of nitrogen. After reconstitution of the residuals the samples are ready for injection onto the HPLC column.

T1 sequence (P41594 21-942 isoform P41594-3 limits assumed): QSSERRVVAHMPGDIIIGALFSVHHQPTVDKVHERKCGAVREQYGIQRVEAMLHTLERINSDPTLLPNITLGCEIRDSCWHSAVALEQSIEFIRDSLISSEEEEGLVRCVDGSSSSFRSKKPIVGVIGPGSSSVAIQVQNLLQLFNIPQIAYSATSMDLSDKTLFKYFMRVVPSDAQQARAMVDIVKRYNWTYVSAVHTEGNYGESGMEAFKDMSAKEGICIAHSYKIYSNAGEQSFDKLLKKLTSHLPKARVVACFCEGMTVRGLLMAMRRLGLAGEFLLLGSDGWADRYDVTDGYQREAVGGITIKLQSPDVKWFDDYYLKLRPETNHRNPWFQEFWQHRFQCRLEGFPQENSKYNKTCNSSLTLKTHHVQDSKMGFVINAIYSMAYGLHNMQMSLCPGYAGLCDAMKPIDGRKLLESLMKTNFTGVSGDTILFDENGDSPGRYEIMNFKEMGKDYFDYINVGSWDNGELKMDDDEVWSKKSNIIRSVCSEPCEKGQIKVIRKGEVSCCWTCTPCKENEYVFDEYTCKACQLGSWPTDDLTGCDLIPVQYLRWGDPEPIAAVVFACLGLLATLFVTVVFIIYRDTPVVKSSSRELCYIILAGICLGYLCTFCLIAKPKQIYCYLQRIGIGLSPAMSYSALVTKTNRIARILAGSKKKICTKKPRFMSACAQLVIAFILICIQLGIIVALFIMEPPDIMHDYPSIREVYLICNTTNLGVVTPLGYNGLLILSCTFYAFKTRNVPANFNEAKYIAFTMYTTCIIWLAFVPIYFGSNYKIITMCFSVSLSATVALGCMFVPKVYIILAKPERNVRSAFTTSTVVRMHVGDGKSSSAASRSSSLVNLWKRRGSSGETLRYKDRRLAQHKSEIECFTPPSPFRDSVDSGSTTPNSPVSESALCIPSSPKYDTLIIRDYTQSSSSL

| SMILES | IC50 [1] | Kp [2] |
| --- | --- | --- |
| Cn1c(-c2cc[nH]c(=O)c2)nnc1N1[C@@H](c2cc(-c3csc(Cl)c3)on2)C[C@H]2C[C@H]21 [Example 10.2, 4-(5-{(1R,3R,5R)-3-[5-(5-Chloro-3-thienyl)isoxazol-3-yl]-2-azabicyclo[3.1.0]hex-2-yl}-4-methyl-4H-1,2,4-triazol-3-yl)pyridin-2(1H)-one] | 35 nM | < 0.01 |
| Cn1c(-c2cn[nH]c(=O)c2)nnc1N1CCC[C@@H]1c1cc(-c2csc(Cl)c2)on1 [Example 10.4, 5-(5-{(2R)-2-[5-(5-Chloro-3-thienyl)isoxazol-3-yl]pyrrolidin-1-yl}-4-methyl-4H-1,2,4-triazol-3-yl)pyridazin-3(2H)-one] | 39 nM | < 0.01 |
| Cn1c(-c2ccn(C)c(=O)c2)nnc1N1CCC[C@@H]1c1cc(-c2csc(Cl)c2)on1 [Example 10.5, 4-(5-{(2R)-2-[5-(5-Chloro-3-thienyl)isoxazol-3-yl]pyrrolidin-1-yl}-4-methyl-4H-1,2,4-triazol-3-yl)-1-methylpyridin-2(1H)-one] | 44 nM | 0.03 |
| Cn1c(-c2cc[nH]c(=O)c2)nnc1N1CCC[C@@H]1c1cc(-c2csc(Cl)c2)on1 [Example 10.6, 4-(5-{(2R)-2-[5-(5-Chloro-3-thienyl)isoxazol-3-yl]pyrrolidin-1-yl}-4-methyl-4H-1,2,4-triazol-3-yl)pyridin-2(1H)-one] | 35 nM | < 0.01 |

Results, then the compound that gave them:

| IC50 [1] | Kp [2] | SMILES |
| --- | --- | --- |
| 34 nM | 0.06 | Cn1c(-c2cn[nH]c(=O)c2)nnc1N1[C@@H](c2cc(-c3csc(Cl)c3)on2)C[C@H]2C[C@H]21 [Example 10.1, 5-(5-{(1R,3R,5R)-3-[5-(5-Chloro-3-thienyl)isoxazol-3-yl]-2-azabicyclo[3.1.0]hex-2-yl}-4-methyl-4H-1,2,4-triazol-3-yl)pyridazin-3(2H)-one] |
| 61 nM | 0.16 | Cn1c(-c2cnn(C)c(=O)c2)nnc1N1CCC[C@@H]1c1cc(-c2csc(Cl)c2)on1 [Example 10.3, 5-(5-{(2R)-2-[5-(5-Chloro-3-thienyl)isoxazol-3-yl]pyrrolidin-1-yl}-4-methyl-4H-1,2,4-triazol-3-yl)-2-methylpyridazin-3(2H)-one] |
